One may read the IC50 as the midpoint of a concentration-inhibition curve.

One data set concerns TGF-beta 2. Put plainly: TGF-beta 2 secretion of Hup-T3 cells (TGF-beta 2-ELISA of cell supernatants). It is filed as cell-based, human. The procedure: After 7 days of total treatment, cell supernatants were removed and the TGF-beta 2 concentration was analyzed (see Example 4, and FIG. 4).
The effect of gemcitabine on TGF-beta 2 expression and secretion, respectively, was investigated on Hup-T3 cells. Gemcitabine was administered to the Hup-T3 cells in following concentrations: 5 μM, 0.5 μM, 50 nM, 5 nM, 0.5 nM, 0.05 nM or 0 nM, and the cells were incubated for 5 h according to Example 1. The treatment solution was optionally replaced after 3 days.
After 7 days of treatment, cell supernatants were removed for the analysis of TGF-beta 2 concentration. The TGF-beta 2 secretion (Δ) was quantified by a standard TGF-beta 2-ELISA Kit (R&D Systems, Minneapolis, USA) according to the manufacturer's instructions.
In a further experiment the effect of the TGF-beta 2 antisense oligonucleotide on the expression and secretion, respectively, of TGF-beta 2 was investigated on Hup-T3 cells. The TGF-beta 2 antisense oligonucleotide, for example SEQ ID No. 30, was administered to the Hup-T3 cells as described in Example 1 (0 μM, 1 μM, 2.5 μM, 5 μM, 10 μM, 20 μM, 40 μM, 60 μM, or 80 μM TGF-beta 2 antisense oligonucleotide). The cells were incubated according to Example 1 and after 7 days of treatment, the cell supernatants were removed for the analysis of TGF-beta 2 concentration using the TGF-beta 2-ELISA Kit of R&D Systems.
Hup-T3 cells were incubated with different concentrations of gemcitabine (2 μM, 800 nM, 320 nM, 128 nM, 51.2 nM, 20.5 nM, 8.2 nM, and 0 nM) and TGF-beta 2 antisense oligonucleotide according to Example 1 (0 μM (▪), 5 μM (Δ), or 10 μM (•) TGF-beta 2 antisense oligonucleotide) and the cell supernatants were removed after 7 days of treatment for the analysis of TGF-beta 2 concentration using the TGF-beta 2-ELISA Kit of R&D Systems.

For data set [1], the system named is gemcitabine-resistant human bladder cancer cells. As to conditions: cited from earlier work.
The subject of the next data set is Hup-T3 cells. Put plainly: Proliferation/viability of Hup-T3 cells (EZ4U method). The class given is cell-based, human. The following applies: gemcitabine 0.05 nM to 5 μM alone, 7 days, FIG. 2. Here is the method:
In a 96-well tissue culture plate 4000 cells/well of a human pancreatic tumor cell line Hup-T3 (German Collection of Microorganisms and Cell Cultures GmbH, Braunschweig, Germany) were seeded. The Hup-T3 cell line is not resistant to gemcitabine. One day after seeding, cells were co-treated with […] different gemcitabine concentrations, i.e., 5 μM, 2 μM, 800 nM, 320 nM, 128 nM, 51.2 nM, 20.5 nM, 8.2 nM, 3.3 nM and 0 nM gemcitabine, respectively, in combination with 0 μM (▪), 5 μM (Δ) or 10 μM (∇) TGF-beta 2 antisense oligonucleotide, for example SEQ ID No. 30, for 5 h. […]
The proliferation/viability of the Hup-T3 cells was analyzed using the EZ4U method according to the manufacturer's instructions (Biozol Diagnostca Vertrieb GmbH), and the OD was measured after an incubation time of 75 min with EZ4U solution using the plate reader “Fluostar-Optima” (BMG LABTECH GmbH). […]
The proliferation/viability of the Hup-T3 cells (▪) was analyzed using the EZ4U method according to the manufacturer's instructions (Biozol Diagnostca Vertrieb GmbH), and the OD was measured after an incubation time of 75 min with EZ4U solution using the plate reader “Fluostar-Optima” (BMG LABTECH GmbH).

A further data set relates to MEL-Juso cells. Put plainly: Proliferation/viability of MEL-Juso cells (Cyquant method). As to conditions: 10 μM TGF-beta 2 antisense oligonucleotide in comparison to 0 μM, FIG. 5. The class given is cell-based, human. The procedure:
In a 48-well tissue culture plate 10 000 cells/well of a human melanoma cell line MEL-Juso (CLS—Cell Lines Service, Eppelheim, Germany) were seeded. The MEL-Juso cell line is not resistant to temozolomide. Six hours after seeding, cells were co-treated with eight different temozolomid concentrations, i.e., 200 μM, 100 μM, 50 μM, 25 μM, 12.5 μM, 6.25 μM, 3.125 μM, and 0 μM temozolomide, respectively, in combination with 0 μM (▪), 5 μM (Δ) or 10 μM (∇) TGF-beta 2 antisense oligonucleotide, for example SEQ ID No. 30, for 2 days. Substances (temozolomide and TGF-beta 2 antisense oligonucleotide) were prepared in aqueous solution, stored at 4° C. and were used for 4 weeks. Thereafter the first treatment solution comprising temozolomidee and the TGF-beta 2 antisense oligonucleotide was removed and replaced by a second treatment solution containing the TGF-beta 2 antisense oligonucleotide and temozolomide in the above mentioned concentrations for further 2 days. […]
The proliferation/viability of the MEL-Juso cells was analyzed using the Cyquant method according to the manufacturer's instructions (Invitrogen), and the OD was measured after an incubation time of 60min with Cyquant solutions (detection reagent, direct nucleic acid stain, and direct nucleic acid background suppressor) using the plate reader “Fluostar-Optima” (BMG LABTECH GmbH).

The next data set concerns A-172 cells. Put plainly: Cytotoxicity on A-172 cells (LDH release, CytoToxicity Detection Kit Plus). The class given is cell-based. As to conditions: combination of temozolomide (200 or 800 μM) and 10 μM antisense oligonucleotide, 5 d. Here is the method: A-172 cells (about 7000 cells/well) were seeded into 48-well plates, and 6 h after seeding 0 μM, 200 μM, or 800 μM temozolomide either alone (grey column) or in combination with 10 μM of a TGF-beta 2 antisense oligonuclotide (black column), for example SEQ ID No. 30, was added to the cells. After 2 d of incubation, the treatment solutions were replaced and cells were incubated for additional 3 d (total treatment time: 5 d). […] The cells of the supernatant were lysed by addition of lysis solution for example from the CytoToxicity Detection Kit Plus (Roche Diagnostics GmbH) and the LDH levels were determined for example according to the manual of the kit.
In general terms: LDH in the medium is a marker of cell lysis.

“Also recorded” adds a separate entry of the source. Read-outs that look alike come from different tables or passages of the source.

Consider `Nc1ccn([C@@H]2O[C@H](CO)[C@@H](O)C2(F)F)c(=O)n1` [gemcitabine], for which the “effect of gemcitabine on TGF-beta 2 secretion” value in the data set with TGF-beta 2 (gemcitabine 0.05 nM to 5 μM, 7 days, FIG. 2) is given as “does not specifically influence the TGF-beta 2 secretion; also recorded: no specific influence”. Further, the “effect of gemcitabine on the suppression of TGF-beta 2 secretion by TGF-beta 2 antisense oligonucleotide” value in the data set with TGF-beta 2 (gemcitabine 8.2 nM to 2 μM with 5 or 10 μM antisense oligonucleotide, FIG. 4) is listed as “does not impair the suppression of TGF-beta 2 secretion; also recorded: does not affect the inhibitory effect of the antisense oligonucleotide on its target”. In addition, the IC50 is 10 nM in data set [1] (gemcitabine-resistant cells chemosensitized with sCLU-2 antisense oligonucleotide) and 100 nM in data set [1] (gemcitabine-resistant cells, before sCLU-2 antisense oligonucleotide). Besides, in the data set with Hup-T3 cells, the “effect of gemcitabine on proliferation and viability” value was “has a cytotoxic effect; also recorded: decreases at higher gemcitabine concentrations”.

As to “CGGCATGTCTATTTTGTA (listed as DNA, chemistry not given here) [TGF-beta 2 antisense oligonucleotide]”, the “reduction of the IC50 of temozolomide (cytotoxicity)” value with MEL-Juso cells is on record as “about 2 ×”. In addition, in the data set on TGF-beta 2 (0, 5 or 10 μM antisense oligonucleotide, gemcitabine 8.2 nM to 2 μM, FIG. 4), the “effect on TGF-beta 2 secretion in the presence of gemcitabine” value is “inhibited TGF-beta 2 secretion in a dose dependent manner”. In the data set on TGF-beta 2 (antisense oligonucleotide 1 to 80 μM, no gemcitabine, 7 days, FIG. 3), the “effect on TGF-beta 2 secretion” value was “inhibited the TGF-beta 2 expression and secretion, respectively, in a dose dependent manner; also recorded: dose dependent inhibitory effect”. In addition, the “amount of released LDH” value in the data set with A-172 cells is reported as “significantly increased”.
